Assay results as given in paper PMC12506092, “The MarR family transcription factor SlyA senses iron and respiratory status in enteric bacteria” (mBio, 2025).
pKd: −log10 of the molar value.

Key:
SlyA [1] = target: T1, SlyA (Salmonella enterica, UniProt P40676); assay: ITC with purified SlyA at […]°C; supported by 1H, […]-HSQC NMR; format: binding
SlyA [2] = target: T1, SlyA; assay: ITC with purified SlyA; supported by NMR; format: binding

T1 sequence (P40676 whole entry): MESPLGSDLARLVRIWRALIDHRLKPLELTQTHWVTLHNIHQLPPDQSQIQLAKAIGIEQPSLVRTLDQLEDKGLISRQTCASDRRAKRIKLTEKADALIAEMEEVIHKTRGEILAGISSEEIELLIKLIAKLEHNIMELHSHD

Work on `O=C(O)c1cccc(O)c1O` [2,3-dihydroxybenzoate] yielded a pKd (SlyA [1]) of roughly 4.24.

`O=C(O)c1ccc(O)cc1` [4-hydroxybenzoate] was tested, and the pKd (SlyA [1]) was roughly 4.00.

For `O=C(O)c1ccccc1O` [salicylate], the pKd (SlyA [2]) was 4.44.
